Tests used:
[1] = system: Escherichia coli (strain 37.4); test: Viable count bactericidal assay; format: cell-based; conditions: for antibacterial activity compared with GCP-2/CXCL6 holopeptide: fragment comparison, FIG. 1b
Source text: (§1) The GAS strain AP1 (40/58) of M1 serotype was from the World Health Organization Collaborating Centre for Reference and Research on Streptococci, Prague, Czech Republic. Streptococcus pyogenes (strain AP1) and Streptococcus Dysgalactiae, sub species equisimilis (strain G41), Staphylococcus aureus (strain 5120), Pseudomonas aeruginosa (strain 1553 initially isolated from a chronic venous ulcer) and Escherichia coli (strain 37.4) were routinely grown in Todd-Hewitt (TH) liquid medium in 5% CO2 and at 37° C. The bacterial strains were obtained from Division of Infection Medicine, Department of Clinical Sciences, Lund University, BMC B14, Tornavagen 10, SE-221 84 Lund, Sweden.
(§2) Bacteria were cultivated to mid-log phase (OD620 0.4) in Todd-Hewitt broth, washed, and diluted in incubation buffer (10 mM Tris-Hcl pH 7.4 containing 5 mM glucose). Pseudomonas aeruginosa was grown for 18 hours at 37° C. 50 μl of bacteria (1×10^6 colony forming units (cfu)/mL) were incubated together with various concentrations of peptide or buffer alone for 1 h at 37° C. In order to quantify bactericidal activity, serial dilutions of the incubation mixtures were plated on TH agar. The number of resulting cfu:s were related to bacteria incubated with buffer alone and the results expressed as % killing.
(§3) GCP-2/CXCL6 (SEQ ID NO:3) as well as parts of CXCL6, i.r., SEQ ID NO:1 and 2 being part of CXCL6 was examined for antibacterial activity against a panel of bacteria relevant during infections of dermis and mucosal surfaces. The bacteria included Gram-positive (Group A streptococci, group G streptococci, and S. aureus) and G-negative (E. coli and P. aeruginosa) bacteria (FIG. 1 a). […] To delineate what regions of the GCP-2/CXCL6 molecule that are responsible for antibacterial activity, a 50 amino acid fragment of the NH2-terminal region (GPV-50) of GCP-2/CXCL6 and a 19 amino acid fragment (APF-19) of the COOH-terminal region (a region with a putative amphiphatic alpha-helical structure), was compared with the GCP-2/CXCL6 holopeptide. Antibacterial activity was investigated against S. pyogenes and E. coli.

[2] = system: Streptococcus pyogenes (strain AP1); test: Viable count bactericidal assay; format: cell-based; conditions: for antibacterial activity compared with GCP-2/CXCL6 holopeptide: fragment comparison, FIG. 1b
Source text: as §1, §2, §3

[3] = system: bacteria; conditions: literature (Yang et al., 2003; Cole et al., 2001); cited from earlier work
[4] = system: Staphylococcus aureus (strain 5120); test: Viable count bactericidal assay; format: cell-based; conditions: 1 h at 37° C., at below micromolar concentrations
Source text: as §1, §2, §3

[5] = system: Streptococcus Dysgalactiae, sub species equisimilis (strain G41); test: Viable count bactericidal assay; format: cell-based; conditions: 1 h at 37° C., at below micromolar concentrations
Source text: as §1, §2, §3

[6] = system: Pseudomonas aeruginosa (strain 1553); test: Viable count bactericidal assay; format: cell-based; conditions: 1 h at 37° C., at below micromolar concentrations
Source text: as §1, §2, §3

[7] = system: Neisserria gonorrhoea; test: Viable count bactericidal assay against N. gonorrhoeae; format: cell-based, Neisseria gonorrhoeae; conditions: mean, ±SEM
Protocol: as §2
The anti-bacterial activity of the GCP-2/CXCL6 (SEQ ID NO:3) against the gram-negative bacteria Neisserria gonorrhoea was determined using the previously described experimental set-up (See Example 3).

[8] = system: Enterococcus faecalis; test: Viable count bactericidal assay against E. faecalis; format: cell-based; conditions: mean, ±SEM
Protocol: as §2
The anti-bacterial activity of the GCP-2/CXCL6 (SEQ ID NO:3) against the gram-positive, facultatively anaerobic bacteria Enterococcus faecalis was determined using the previously described experimental set-up (See Example 3).

[9] = viable count, 1 h at 37° C., at below micromolar concentrations

**Q.** Which “antibacterial activity compared with GCP-2/CXCL6 holopeptide” value [1] does the source give for “APFLKKVIQKILDSGNKKN (CXCL6 peptide) [APF-19, 19 amino acid fragment of the COOH-terminal region of GCP-2/CXCL6]” here?
**A.** less antibacterial than the holopeptide

**Q.** What about the “antibacterial activity compared with GCP-2/CXCL6 holopeptide” value [2] of the same substance?
**A.** less antibacterial than the holopeptide

**Q.** Which activity against bacteria [3] does the source give for “CXCL5: related ELR-positive CXC chemokine, closest sequence homology to CXCL6 [reference compound]” here?
**A.** no activity against bacteria

**Q.** For “GCP-2/CXCL6: Recombinant human chemokine GCP-2/CXCL6 (SEQ ID NO:3) from PeproTech”, which bactericidal effect [4] is on record?
**A.** bactericidal effect

**Q.** And the bactericidal effect [5]?
**A.** bactericidal effect

**Q.** What about the bactericidal effect [1, 9] of the same substance?
**A.** bactericidal effect

**Q.** And the bactericidal effect [6]?
**A.** bactericidal effect

**Q.** What about the bactericidal effect [2, 9] of the same substance?
**A.** bactericidal effect

**Q.** What about the activity against bacteria [3] of the same substance?
**A.** no activity

**Q.** What about the MBC50 [7] of the same substance?
**A.** 0.3 ± 0.1 μM (mean, ±SEM)

**Q.** And the MBC90 [7]?
**A.** 0.8 ± 0.1 µM

**Q.** And the MBC50 [8]?
**A.** 0.46 ± 0.03 μM (mean, ±SEM)

**Q.** And the MBC90 [8]?
**A.** 0.90 ± 0.00 µM

**Q.** Which “antibacterial activity compared with GCP-2/CXCL6 holopeptide” value [1] does the source give for “GPVSAVLTELRCTCLRVTLRVNPKTIGKLQVFPAGPQCSKVEVVASLKNG (CXCL6 peptide) [GPV-50, 50 amino acid fragment of the NH2-terminal region of GCP-2/CXCL6]” here?
**A.** higher antibacterial activity than APF-19

**Q.** What about the “antibacterial activity compared with GCP-2/CXCL6 holopeptide” value [2] of the same substance?
**A.** higher antibacterial activity than APF-19

— patent publication US20110144000A1, “ANTIMICROBIAL POLYPEPTIDE” (priority 2007, published 2011)
